Results from US8691753B2 (priority 2009, dated 2014).
Read-outs that look alike come from different tables or passages of the source.

Columns and labels:
MMP-2h = MMP-2h (Homo sapiens (Human), UniProt P08253); test: Inhibition constant (Ki) on MMP-2h; type: biochemical; conditions: for Ki: human MMP-2
In short: (§1)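 Compounds are evaluated on human MMPs, and Ki is derived as set out in an earlier publication.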

MMP-8h = MMP-8h (Homo sapiens (Human), UniProt P22894); test: Inhibition constant (Ki) on MMP-8h; type: biochemical; conditions: for Ki: human MMP-8
MMP-8h, sequence (P22894 101-467): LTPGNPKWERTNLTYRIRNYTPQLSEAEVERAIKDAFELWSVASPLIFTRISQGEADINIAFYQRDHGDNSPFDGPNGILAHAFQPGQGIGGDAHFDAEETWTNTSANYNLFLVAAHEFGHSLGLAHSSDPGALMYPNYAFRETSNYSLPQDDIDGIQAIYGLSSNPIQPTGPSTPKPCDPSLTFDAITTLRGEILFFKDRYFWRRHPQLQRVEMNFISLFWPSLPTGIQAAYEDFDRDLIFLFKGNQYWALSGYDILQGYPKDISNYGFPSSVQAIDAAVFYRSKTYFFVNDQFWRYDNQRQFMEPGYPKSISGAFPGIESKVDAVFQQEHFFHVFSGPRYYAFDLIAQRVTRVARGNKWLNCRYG

human MMPs [1] = conditions: reported by Devel et al., J. Biol. Chem. 2006; cited from earlier work
MMP-14h = MMP-14h (Homo sapiens (Human), UniProt P50281); test: Inhibition constant (Ki) on MMP-14h; type: biochemical; conditions: for Ki: human MMP-14
In short: as §1

MMP-10h = MMP-10h (Homo sapiens (Human), UniProt P09238); test: Inhibition constant (Ki) on MMP-10h; type: biochemical; conditions: for Ki: human MMP-10
MMP-10h, sequence (P09238 99-476): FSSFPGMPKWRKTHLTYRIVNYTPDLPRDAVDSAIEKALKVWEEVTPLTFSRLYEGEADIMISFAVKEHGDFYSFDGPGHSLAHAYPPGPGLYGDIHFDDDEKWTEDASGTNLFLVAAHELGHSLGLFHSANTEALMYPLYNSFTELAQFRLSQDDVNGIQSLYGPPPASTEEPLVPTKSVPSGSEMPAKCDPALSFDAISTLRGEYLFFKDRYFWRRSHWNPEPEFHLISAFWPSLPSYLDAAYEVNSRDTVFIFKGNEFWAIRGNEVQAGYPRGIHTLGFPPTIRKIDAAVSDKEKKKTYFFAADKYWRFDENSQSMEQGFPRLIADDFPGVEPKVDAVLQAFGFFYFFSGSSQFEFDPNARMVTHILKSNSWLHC

MMP-3h = MMP-3h (Homo sapiens (Human), UniProt P08254); test: Inhibition constant (Ki) on MMP-3h; type: biochemical; conditions: for Ki: human MMP-3
MMP-3h, sequence (P08254 100-477): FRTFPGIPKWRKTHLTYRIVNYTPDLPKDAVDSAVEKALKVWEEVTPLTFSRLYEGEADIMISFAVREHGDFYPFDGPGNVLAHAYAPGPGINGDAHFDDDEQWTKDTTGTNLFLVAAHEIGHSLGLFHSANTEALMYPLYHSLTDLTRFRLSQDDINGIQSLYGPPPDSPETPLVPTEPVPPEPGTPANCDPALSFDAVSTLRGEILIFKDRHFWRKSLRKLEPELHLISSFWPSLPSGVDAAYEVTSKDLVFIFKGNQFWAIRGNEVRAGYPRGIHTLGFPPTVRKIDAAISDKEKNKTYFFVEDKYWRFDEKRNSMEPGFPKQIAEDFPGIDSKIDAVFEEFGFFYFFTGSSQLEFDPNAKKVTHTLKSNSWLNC
In short: as §1

MMP-12h [2] = molecular target: T1, MMP-12h (Homo sapiens (Human), UniProt P39900); test: Inhibition constant (Ki) on MMP-12h; type: biochemical; conditions: for Ki: read-out: Ki MMP-12h, human MMP-12
T1 sequence (P39900 106-470): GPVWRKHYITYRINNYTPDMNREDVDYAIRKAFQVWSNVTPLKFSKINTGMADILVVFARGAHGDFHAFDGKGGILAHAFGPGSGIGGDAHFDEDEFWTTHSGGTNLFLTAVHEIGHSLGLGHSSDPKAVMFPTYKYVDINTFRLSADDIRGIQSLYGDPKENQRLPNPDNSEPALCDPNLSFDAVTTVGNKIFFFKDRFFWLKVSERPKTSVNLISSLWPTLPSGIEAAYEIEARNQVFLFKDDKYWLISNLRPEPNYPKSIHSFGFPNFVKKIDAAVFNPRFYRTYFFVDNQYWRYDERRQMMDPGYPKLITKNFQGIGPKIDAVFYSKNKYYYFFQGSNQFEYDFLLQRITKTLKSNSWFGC

MMP-12h [3] = molecular target: T1, MMP-12h; conditions: reported by Devel et al., J. Biol. Chem. 2006; read-out: inhibition constant Ki for human MMP-12; cited from earlier work
MMP-13h = MMP-13h (Homo sapiens (Human), UniProt P45452); test: Inhibition constant (Ki) on MMP-13h; type: biochemical; conditions: for Ki: human MMP-13
In short: as §1

MMP-9h = MMP-9h (Homo sapiens (Human), UniProt P14780); test: Inhibition constant (Ki) on MMP-9h; type: biochemical; conditions: for Ki: human MMP-9
MMP-9h, sequence (P14780 94-707): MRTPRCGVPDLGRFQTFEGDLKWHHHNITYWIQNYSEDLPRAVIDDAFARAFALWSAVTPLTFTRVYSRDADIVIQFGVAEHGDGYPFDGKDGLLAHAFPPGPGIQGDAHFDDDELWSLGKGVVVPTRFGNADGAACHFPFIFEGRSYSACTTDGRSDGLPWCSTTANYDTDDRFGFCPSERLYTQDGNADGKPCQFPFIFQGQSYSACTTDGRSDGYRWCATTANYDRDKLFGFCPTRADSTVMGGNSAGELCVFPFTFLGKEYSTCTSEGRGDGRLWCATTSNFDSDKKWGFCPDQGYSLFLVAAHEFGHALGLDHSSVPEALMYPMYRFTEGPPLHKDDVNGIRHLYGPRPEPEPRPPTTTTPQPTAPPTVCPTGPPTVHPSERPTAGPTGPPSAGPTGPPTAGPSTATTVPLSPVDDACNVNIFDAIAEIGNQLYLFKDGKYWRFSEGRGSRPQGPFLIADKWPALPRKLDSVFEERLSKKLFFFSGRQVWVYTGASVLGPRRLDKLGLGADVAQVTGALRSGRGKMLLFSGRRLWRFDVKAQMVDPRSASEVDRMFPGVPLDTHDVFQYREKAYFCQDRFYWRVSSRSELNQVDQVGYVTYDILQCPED
In short: as §1

[4] = Determination of the plasma concentration in mice after infusion; conditions: mouse, intravenous, 10 mg/kg
[5] = Stability test in mouse blood; type: in vitro ADME; conditions: after 24 hours in mouse blood
Protocol: The loss of 50% of the starting material can be attributed to a phenomenon of nonspecific association of the compound with the wall of the eppendorf. It should be noted that this 50% loss of the compound was also observed after 24 hours for a solution at 10 nM in PBS buffer or in a solution at 1 μM of PBS (Bovine Serum Albumin).

MMP-7h = MMP-7h (Homo sapiens (Human), UniProt P09237); test: Inhibition constant (Ki) on MMP-7h; type: biochemical; conditions: for Ki: human MMP-7
MMP-7h, sequence (P09237 95-267): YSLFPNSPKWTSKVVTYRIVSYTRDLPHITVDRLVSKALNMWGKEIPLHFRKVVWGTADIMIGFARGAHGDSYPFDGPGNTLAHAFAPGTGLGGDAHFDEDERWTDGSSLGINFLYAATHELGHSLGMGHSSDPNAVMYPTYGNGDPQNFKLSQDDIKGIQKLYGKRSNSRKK
Source text: (§2) The inhibition constant Ki of these compounds has been determined according to the protocol described by Devel et al, 2006, J. Biol. Chem. (7).
(§3) In this table I and also in table II below, “h” corresponds to human. All of the compounds have therefore been evaluated on human MMPs.

MMP-1h = MMP-1h (Homo sapiens (Human), UniProt P03956); test: Inhibition constant (Ki) on MMP-1h; type: biochemical; conditions: for Ki: human MMP-1
MMP-1h, sequence (P03956 100-469): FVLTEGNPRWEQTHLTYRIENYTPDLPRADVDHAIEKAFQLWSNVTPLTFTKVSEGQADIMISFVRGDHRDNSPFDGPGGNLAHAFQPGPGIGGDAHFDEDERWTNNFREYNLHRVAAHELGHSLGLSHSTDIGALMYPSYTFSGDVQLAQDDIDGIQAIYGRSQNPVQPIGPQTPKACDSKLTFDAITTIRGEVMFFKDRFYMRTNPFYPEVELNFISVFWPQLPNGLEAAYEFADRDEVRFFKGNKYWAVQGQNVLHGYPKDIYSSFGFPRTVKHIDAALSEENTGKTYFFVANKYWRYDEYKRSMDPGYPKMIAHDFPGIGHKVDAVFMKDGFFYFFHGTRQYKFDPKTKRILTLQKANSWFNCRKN
Source text: as §2, §3

human MMPs [6] = test: Inhibition of the panel of human MMPs (overall statements, selectivity); type: biochemical; conditions: other human MMPs versus MMP-12

MMP-2h, sequence (P08253 110-660): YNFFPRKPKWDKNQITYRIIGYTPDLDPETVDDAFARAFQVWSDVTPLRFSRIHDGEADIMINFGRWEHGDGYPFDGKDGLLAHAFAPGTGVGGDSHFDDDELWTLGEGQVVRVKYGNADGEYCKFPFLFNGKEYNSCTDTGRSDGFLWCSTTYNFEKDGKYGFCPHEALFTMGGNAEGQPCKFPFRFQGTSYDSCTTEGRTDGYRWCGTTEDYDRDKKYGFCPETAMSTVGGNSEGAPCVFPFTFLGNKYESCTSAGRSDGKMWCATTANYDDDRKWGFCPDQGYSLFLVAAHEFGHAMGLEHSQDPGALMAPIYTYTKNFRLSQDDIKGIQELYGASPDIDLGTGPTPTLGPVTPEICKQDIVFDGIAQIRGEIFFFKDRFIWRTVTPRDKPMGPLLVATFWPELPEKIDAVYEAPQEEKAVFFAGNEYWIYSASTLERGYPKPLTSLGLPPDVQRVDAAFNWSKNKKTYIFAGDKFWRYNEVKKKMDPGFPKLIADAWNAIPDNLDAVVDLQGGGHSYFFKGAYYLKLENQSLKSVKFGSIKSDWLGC

SMILES	Ki (MMP-2h; read-out: Ki MMP-2h) [nM]	Ki (MMP-8h; read-out: Ki MMP-8h) [nM]	Ki (MMP-14h; read-out: Ki MMP-14h) [nM]	Ki (MMP-10h; read-out: Ki MMP-10h) [nM]	Ki (MMP-3h; read-out: Ki MMP-3h) [nM]	Ki (MMP-12h [2]) [nM]	Ki (MMP-13h; read-out: Ki MMP-13h) [nM]	Ki (MMP-9h; read-out: Ki MMP-9h) [nM]	selectivity factor F = Ki MMP-x/Ki MMP-12 (human MMPs [6])	Ki (MMP-7h; read-out: Ki MMP-7h) [nM]	Ki (MMP-1h; read-out: Ki MMP-1h) [nM]	further results
NC(=O)[C@H](CCC(=O)O)NC(=O)[C@H](CCC(=O)O)NC(=O)[C@H](Cc1cc(-c2ccc(-c3cccc(Cl)c3)cc2)no1)CP(=O)(O)c1ccc(Br)cc1 [RXP470, reference compound]	72	77	80	8.3	58	0.2	13	850				potency toward MMPs 1, 2, 3, 7, 8, 9, 11, 13 and 14 compared with MMP-12 (human MMPs [1]): two to three orders of magnitude less powerful; Ki (MMP-12h [3]): 0.4 nM
Cc1ccc(-c2ccc(CCC(=O)N[C@@H](CCC(=O)O)C(=O)N[C@@H](CCC(=O)O)C(N)=O)cc2)s1 [Compound 91, (S)-5-amino-4-((S)-4-carboxy-2-(3-(4-(5-methylthiophen-2-yl)phenyl)propanamido)butanamido)-5-oxopentanoic acid]	97	10.3	> 1000	353	> 1000	1.84	564	242				concentration at 5 min [4]: 1000 nM
NC(=O)[C@H](CCC(=O)O)NC(=O)[C@H](CCC(=O)O)NC(=O)CCc1ccc(-c2ccccc2)cc1 [Compound 40, (S)-5-amino-4-((S)-2-(3-(biphenyl-4-yl)propanamido)-4-carboxybutanamido)-5-oxopentanoic acid]												by-product resulting from the compound ([5]; LC-MS and MS/MS): No by-product; amount detected in intact form ([5]; LC-MS, initial solution 10 nM): 50 fmol; loss of the starting material ([5]; attributed to nonspecific association with the eppendorf wall): 50%; Ki (MMP-2h): 445 nM; Ki (MMP-8h): 226 nM; Ki (MMP-7h): > 10000 nM; Ki (MMP-14h): > 5000 nM; Ki (MMP-10h): > 1000 nM; Ki (MMP-3h): > 5000 nM; Ki (MMP-13h): 689 nM; Ki (MMP-1h): > 100000 nM; Ki (MMP-9h): > 1000 nM
NC(=O)[C@H](CCC(=O)O)NC(=O)[C@H](CCC(=O)O)NC(=O)[C@@H](CC(=O)O)Cc1ccc(-c2cc(-c3ccccc3)cs2)cc1 [95 bis, (S)-5-amino-4-((S)-4-carboxy-2-((R)-3-carboxy-2-(4-(4-phenylthiophen-2-yl)benzyl)propanamido)butanamido)-5-oxopentanoic acid]	401	520	118	80	579	0.3	198	> 1000	> 100	> 1000	> 1000	Selectivity factor/MMP12, MMP-2h (MMP-2h; Ki MMP-2h/Ki MMP-12): 1340; Selectivity factor/MMP12, MMP-8h (MMP-8h; Ki MMP-8h/Ki MMP-12): 1730; Selectivity factor/MMP12, MMP-7h (MMP-7h; Ki MMP-7h/Ki MMP-12): 3333; Selectivity factor/MMP12, MMP-14h (MMP-14h; Ki MMP-14h/Ki MMP-12): 395; Selectivity factor/MMP12, MMP-10h (MMP-10h; Ki MMP-10h/Ki MMP-12): 270; Selectivity factor/MMP12, MMP-3h (MMP-3h; Ki MMP-3h/Ki MMP-12): 1930; improvement of affinity with respect to MMP-12 compared with compound 95 (factor) (MMP-12h [2]): 6; Selectivity factor/MMP12, MMP-12h (MMP-12h [2]; Ki MMP-12h/Ki MMP-12): 1; Selectivity factor/MMP12, MMP-13h (MMP-13h; Ki MMP-13h/Ki MMP-12): 660; Selectivity factor/MMP12, MMP-1h (MMP-1h; Ki MMP-1h/Ki MMP-12): 3333; Selectivity factor/MMP12, MMP-9h (MMP-9h; Ki MMP-9h/Ki MMP-12): 3333
NC(=O)CC[C@H](NC(=O)[C@H](CCC(=O)O)NC(=O)CCc1ccc(-c2cc(-c3ccccc3)cs2)cc1)C(N)=O [Compound 99, (S)-5-((S)-1,5-diamino-1,5-dioxopentan-2-ylamino)-5-oxo-4-(3-(4-(4-phenylthiophen-2-yl)phenyl)propanamido)pentanoic acid]	> 1000	> 1000	> 1000	> 1000	> 10000	5.4	522	> 5000	> 100	> 10000	> 10000	
